{"source": "patent US20100209960A1", "about": "“METHOD FOR MEASURING MITOCHONDRIAL MEMBRANE POTENTIAL IN VERTEBRATE CELLS” (MERCK SHARP & DOHME CORP., priority 2007, published 2010)", "key": {"[1]": {"tested_on": "mitochondrial membrane potential in CHO—K1 cells", "test": "cells", "format": "cell-based", "conditions": "for EC50: Cricetulus griseus, read-out: EC50 (decrease of mitochondrial membrane potential)", "description": "24 hours before assay, CHO—K1 cells were seeded in a 384 well plate at 75,000 cells per well in 50 μl growth medium (Iscove's Modified Dulbecco's Medium Invitrogen, 12440-046, 10% Fetal Bovine Serum (Invitrogen, 26140-095), 1× HT Supplement (Invitrogen, 11067-030) 1× Penicillin-Streptomycin solution (Hyclone, SV30010) 2 mM Glutamine (Hyclone, SH30034.01). Cells were then incubated overnight at 37° C., 5% carbon dioxide. When commencing the assay, 50 μl of assay buffer (50 mM Hepes, pH 7.4 150 mM KCL, 1600 mM NaCl, 25 mM D-(+)-glucose) was added to cells. […] 10 μl of 9 μM fluorescent dye TMRM (in 10% DMSO) was added and cells are incubated for 20 minutes at room temperature. 10 μl of 16 mM Brilliant Black BN prepared in D-PBS was added to yield a 1.6 mM final concentration of Brilliant Black BN. The fluorescence was immediately read on a Molecular Devices Analyst HT fluorescent plate reader, using an excitation wavelength of 530 nm and measuring the emission at 580 nm.\n24 hours before assay, CHO—K1 cells were seeded in a 384 well plate at 75,000 cells per well in 50 μl growth medium (Iscove's Modified Dulbecco's Medium, lnvitrogen, 12440-046, 10% Fetal Bovine Serum (Invitrogen, 26140-095), 1× HT Supplement (Invitrogen, 11067-030) 1× Penicillin-Streptomycin solution (Hyclone, SV30010) 2 mM Glutamine (Hyclone, SH30034.01). Cells were then incubated overnight at 37° C., 5% carbon dioxide. When commencing the assay, 50 μl of assay buffer (50 mM Hepes, pH 7.4 150 mM KCL, 1600 mM NaCl, 25 mM D-(+)-glucose) was added to cells. 1 μl of the various amounts of the cation ionophore, H+—K+ antiporter, nigericin, was added and the cells are then incubated for 30 minutes at 37° C., 5% carbon dioxide. 10 μl of 9 μM fluorescent dye TMRM (in 10% DMSO) was added and cells are incubated for 20 minutes at room temperature. 10 μl of 16 mM Brilliant Black BN prepared in D-PBS was added yield a 1.6 mM final concentration of Brilliant Black BN. The fluorescence was immediately read on a Molecular Devices Analyst HT fluorescent plate reader, using an excitation wavelength of 530 nm and measuring the emission at 580 nm."}, "[2]": {"tested_on": "mitochondrial membrane potential in CHO—K1 cells", "test": "Homogeneous TMRM/Brilliant Black BN mitochondrial membrane potential assay, 1536 well plate", "format": "cell-based", "conditions": "Cricetulus griseus, 0.5 h, 30 minutes incubation, TMRM fluorescence, read-out: EC50 (decrease of mitochondrial membrane potential)", "description": "24 hours before assay, CHO—K1 cells were seeded in a 1536 well plate at 10,000 cells per well in 4 μl growth medium (Iscove's Modified Dulbecco's Medium Invitrogen, 12440-046, 10% Fetal Bovine Serum (Invitrogen, 26140-095), 1×HT Supplement (Invitrogen, 11067-030) 1× Penicillin-Streptomycin solution (Hyclone, SV30010) 2 mM Glutamine (Hyclone, SH30034.01). Cells were then incubated overnight at 37° C., 5% carbon dioxide. When commencing the assay, 4 μl of assay buffer (50 mM Hepes, pH 7.4 150 mM KCL, 1600 mM NaCl, 25 mM D-(+)-glucose) was added to cells. 80 nl of various amounts of the mitochondrial uncoupling compound, CCCP, was added and the cells were then incubated for 30 minutes at 37° C., 5% carbon dioxide. 0.8 μl of 6 μM fluorescent dye TMRM (in 20% DMSO) was added and cells were incubated for 20 minutes at room temperature. 0.8 μl of 16 mM Brilliant Black BN prepared in D-PBS was added yield a 1.6 mM final concentration of Brilliant Black BN. The fluorescence was immediately read on a Molecular Devices Tetra fluorescent plate reader, using an excitation wavelength of 530 nm and measuring the emission at 580 nm while employing a custom filter (Omega Optical) whose transmission wavelength was 580 nm±10 nm."}}, "data": [{"smiles": "O=[N+]([O-])c1ccc(O)c([N+](=O)[O-])c1", "note": "[2,4-DNP, 2,4-dinitrophenol]", "values": [{"measurement": "EC50", "setting": "[1]; CHO-K1, 0.5 h", "value": 5000, "unit": "nM"}]}, {"smiles": "N#CC(C#N)=NNc1cccc(Cl)c1", "note": "[CCCP, carbonylcyanide m-chlorophenylhydrazone]", "values": [{"measurement": "EC50", "setting": "[1]; 0.5 h, adherent CHO—K1 cells, 384 well plate, 30 minutes incubation, TMRM fluorescence", "value": 250, "unit": "nM"}, {"measurement": "EC50", "setting": "[2]", "value": 180, "unit": "nM"}]}, {"smiles": "CO[C@@H]1C[C@@H](C[C@H]2CC[C@H](C)[C@H]([C@@H](C)C(=O)O)O2)O[C@]2(O[C@](C)([C@H]3CC[C@@](C)([C@@H]4O[C@@H]([C@H]5O[C@@](O)(CO)[C@H](C)C[C@@H]5C)C[C@@H]4C)O3)C[C@H]2C)[C@@H]1C", "note": "[Nigericin, nigericin]", "values": [{"measurement": "Effect at greater levels of nigericin", "setting": "[1]", "value": "toxicity and membrane depolarization"}, {"measurement": "Effect on mitochondrial membrane potential", "setting": "[1]; adherent CHO—K1 cells, 384 well plate, increasing amounts of nigericin", "value": "caused hyperpolarization of the mitochondrial membrane"}]}]}
